Data published in PubChem BioAssay AID2060354 (Molecular Pharmacology Branch, DTP, NCI, 2025).
Where “and” joins values, the source holds several entries; their conditions need not be identical. Identical values can stand only once. Values belong to the compound of their own block, whether it stands above or below them.

System: 519858-162-T-J1-PDC spheroid growth inhibition
Assay: Anticancer human tumor 519858-162-T-J1-PDC patient-derived colon adenocarcinoma cell line growth inhibition [TAK]
Details: spheroids with HUVEC and MSC; for viability, T/C: stronger effect = lower value
Method in brief: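 Spheroids of 60% malignant cells, 25% HUVEC and 15% hMSC were exposed to targeted agents combined with TAK-243 or ipatasertib. Concentrations started at or near clinical Cmax (10 microM if unknown) and descended in half-log steps.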

[1] = curve of first compound, second compound 0.3 µM
[2] = curve of first compound, second compound 0.949 µM
[3] = curve of first compound, second compound 3 µM
[4] = curve of first compound, second compound 9.49 µM
[5] = curve of first compound, second compound 30 µM
[6] = second compound 0.3 µM, first compound 0.000316 µM
[7] = second compound 0.3 µM, first compound 0.001 µM
[8] = second compound 0.3 µM, first compound 0.00316 µM
[9] = second compound 0.3 µM, first compound 0.01 µM
[10] = second compound 0.3 µM, first compound 0.0316 µM
[11] = second compound 0.3 µM, first compound 0.1 µM
[12] = second compound 0.949 µM, first compound 0.000316 µM
[13] = second compound 0.949 µM, first compound 0.001 µM
[14] = second compound 0.949 µM, first compound 0.00316 µM
[15] = second compound 0.949 µM, first compound 0.01 µM
[16] = second compound 0.949 µM, first compound 0.0316 µM
[17] = second compound 0.949 µM, first compound 0.1 µM
[18] = second compound 3 µM, first compound 0.000316 µM
[19] = second compound 3 µM, first compound 0.001 µM
[20] = second compound 3 µM, first compound 0.00316 µM
[21] = second compound 3 µM, first compound 0.01 µM
[22] = second compound 3 µM, first compound 0.0316 µM
[23] = second compound 3 µM, first compound 0.1 µM
[24] = second compound 9.49 µM, first compound 0.000316 µM
[25] = second compound 9.49 µM, first compound 0.001 µM
[26] = second compound 9.49 µM, first compound 0.00316 µM
[27] = second compound 9.49 µM, first compound 0.01 µM
[28] = second compound 9.49 µM, first compound 0.0316 µM
[29] = second compound 9.49 µM, first compound 0.1 µM
[30] = second compound 30 µM, first compound 0.000316 µM
[31] = second compound 30 µM, first compound 0.001 µM
[32] = second compound 30 µM, first compound 0.00316 µM
[33] = second compound 30 µM, first compound 0.01 µM
[34] = second compound 30 µM, first compound 0.0316 µM
[35] = second compound 30 µM, first compound 0.1 µM
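Further: each agent tested in combination with TAK-243 or ipatasertib; spheroids exposed to drugs for 7 days.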

Structure (SMILES): COC1CC2CCC(C)C(O)(O2)C(=O)C(=O)N2CCCCC2C(=O)OC(C(C)CC2CCC(OCCO)C(OC)C2)CC(=O)C(C)C=C(C)C(O)C(OC)C(=O)C(C)CC(C)C=CC=CC=C1C (stereo not drawn) + CC(C)NCC(C(=O)N1CCN(c2ncnc3c2C(C)CC3O)CC1)c1ccc(Cl)cc1
IC50 [1]: > 100 nM
IC50 [2]: > 100 nM
IC50 [3]: > 100 nM
IC50 [4]: > 100 nM
IC50 [5]: > 100 nM
viability, T/C [6]: 102%
viability, T/C [7]: 91.5%
viability, T/C [8]: 89.6%
viability, T/C [9]: 90%
viability, T/C [10]: 104%
viability, T/C [11]: 84.6%
viability, T/C [12]: 83.6%
viability, T/C [13]: 87.1%
viability, T/C [14]: 65.8%
viability, T/C [15]: 85.7%
viability, T/C [16]: 85.2%
viability, T/C [17]: 71.6%
viability, T/C [18]: 99.2%
viability, T/C [19]: 68.7%
viability, T/C [20]: 85.3%
viability, T/C [21]: 93.4%
viability, T/C [22]: 85.6%
viability, T/C [23]: 94.1%
viability, T/C [24]: 98.9%
viability, T/C [25]: 84.6%
viability, T/C [26]: 75.6%
viability, T/C [27]: 98%
viability, T/C [28]: 85.8%
viability, T/C [29]: 73.8%
viability, T/C [30]: 90.2%
viability, T/C [31]: 96.8%
viability, T/C [32]: 82.3%
viability, T/C [33]: 96.8%
viability, T/C [34]: 97.3%
viability, T/C [35]: 72.6%

Structure (SMILES): CC(C)(C)c1nc(-c2cccc(NS(=O)(=O)c3c(F)cccc3F)c2F)c(-c2ccnc(N)n2)s1 + CC(C)NCC(C(=O)N1CCN(c2ncnc3c2C(C)CC3O)CC1)c1ccc(Cl)cc1
IC50 [1]: > 10000 nM
IC50 [2]: > 10000 nM
IC50 [3]: > 10000 nM
IC50 [4]: > 10000 nM
IC50 [5]: > 10000 nM
viability, T/C [10]: 112%
viability, T/C [11]: 128%
viability, T/C (second compound 0.3 µM, first compound 0.316 µM): 115%
viability, T/C (second compound 0.3 µM, first compound 1 µM): 130%
viability, T/C (second compound 0.3 µM, first compound 3.16 µM): 107%
viability, T/C (second compound 0.3 µM, first compound 10 µM): 77.9%
viability, T/C [16]: 109%
viability, T/C [17]: 115%
viability, T/C (second compound 0.949 µM, first compound 0.316 µM): 130%
viability, T/C (second compound 0.949 µM, first compound 1 µM): 113%
viability, T/C (second compound 0.949 µM, first compound 3.16 µM): 100%
viability, T/C (second compound 0.949 µM, first compound 10 µM): 86.7%
viability, T/C [22]: 102%
viability, T/C [23]: 102%
viability, T/C (second compound 3 µM, first compound 0.316 µM): 116%
viability, T/C (second compound 3 µM, first compound 1 µM): 97.3%
viability, T/C (second compound 3 µM, first compound 3.16 µM): 106%
viability, T/C (second compound 3 µM, first compound 10 µM): 61.2%
viability, T/C [28]: 104%
viability, T/C [29]: 92.6%
viability, T/C (second compound 9.49 µM, first compound 0.316 µM): 112%
viability, T/C (second compound 9.49 µM, first compound 1 µM): 91.6%
viability, T/C (second compound 9.49 µM, first compound 3.16 µM): 84.4%
viability, T/C (second compound 9.49 µM, first compound 10 µM): 72.6%
viability, T/C [34]: 105%
viability, T/C [35]: 86.9%
viability, T/C (second compound 30 µM, first compound 0.316 µM): 98.1%
viability, T/C (second compound 30 µM, first compound 1 µM): 82.2%
viability, T/C (second compound 30 µM, first compound 3.16 µM): 83.2%
viability, T/C (second compound 30 µM, first compound 10 µM): 75.4%

Structure (SMILES): CC(C)CC(NC(=O)CNC(=O)c1cc(Cl)ccc1Cl)B1OC(=O)CC(CC(=O)O)(C(=O)O)O1 (stereo not drawn) + CC(C)NCC(C(=O)N1CCN(c2ncnc3c2C(C)CC3O)CC1)c1ccc(Cl)cc1
IC50 [1]: > 100 nM
IC50 [2]: > 100 nM
IC50 [3]: > 100 nM
IC50 [4]: > 100 nM
IC50 [5]: > 100 nM
viability, T/C [6]: 94.4%
viability, T/C [7]: 101%
viability, T/C [8]: 99%
viability, T/C [9]: 79%
viability, T/C [10]: 95.9%
viability, T/C [11]: 59.7%
viability, T/C [12]: 114%
viability, T/C [13]: 91.7%
viability, T/C [14]: 79.5%
viability, T/C [15]: 81.3%
viability, T/C [16]: 88%
viability, T/C [17]: 67.7%
viability, T/C [18]: 101%
viability, T/C [19]: 88.5%
viability, T/C [20]: 92.5%
viability, T/C [21]: 71.3%
viability, T/C [22]: 81.7%
viability, T/C [23]: 82.9%
viability, T/C [24]: 90%
viability, T/C [25]: 100%
viability, T/C [26]: 80.4%
viability, T/C [27]: 77.2%
viability, T/C [28]: 92.5%
viability, T/C [29]: 71.1%
viability, T/C [30]: 90.5%
viability, T/C [31]: 87.7%
viability, T/C [32]: 108%
viability, T/C [33]: 79.5%
viability, T/C [34]: 73.3%
viability, T/C [35]: 78.6%

IC50 (curve of compound): > 100 nM
Structure (SMILES): CC(C)n1nc(-c2ccc3oc(N)nc3c2)c2c(N)ncnc21
viability, T/C (compound 0.001 µM): 104% and 100%
viability, T/C (compound 0.00316 µM): 94.8% and 95.9%
viability, T/C (compound 0.01 µM): 112% and 97.5%
viability, T/C (compound 0.0316 µM): 78.9% and 93.1%
viability, T/C (compound 0.1 µM): 74.1% and 61.6%

IC50 (curve of compound): > 10000 nM
Structure (SMILES): CC(C)(C)c1nc(-c2cccc(NS(=O)(=O)c3c(F)cccc3F)c2F)c(-c2ccnc(N)n2)s1
viability, T/C (compound 0.0316 µM): 116% and 110%
viability, T/C (compound 0.1 µM): 134% and 144%
viability, T/C (compound 0.316 µM): 131% and 137%
viability, T/C (compound 1 µM): 132% and 150%
viability, T/C (compound 3.16 µM): 99% and 94.1%
viability, T/C (compound 10 µM): 53.2% and 71.4%
